Laboratory results as given in ChEMBL document CHEMBL5058641, “Data for DCP probe TP-050” (2022).

Columns and labels:
[1] = molecular target: D(4) dopamine receptor (Homo sapiens) (UniProt P21917); details: Compound concentration 10.0 uM
[2] = molecular target: 5-hydroxytryptamine receptor 5A (Homo sapiens) (UniProt P47898); details: Compound concentration 10.0 uM
[3] = molecular target: T1, Sodium-dependent dopamine transporter (Homo sapiens, UniProt Q01959); test: GPCRScan assay: inhibition of DAT; parameters: radioligand conc. used [nm] 3.6 – 16.0, parental cells stable HEK
[4] = molecular target: Sigma non-opioid intracellular receptor 1 (Homo sapiens) (UniProt Q99720); details: Compound concentration 10.0 uM
[5] = molecular target: Alpha-2A adrenergic receptor (Homo sapiens) (UniProt P08913); details: Compound concentration 10.0 uM
[6] = molecular target: Sodium-dependent serotonin transporter (Homo sapiens, UniProt P31645); details: Compound concentration 10.0 uM
[7] = molecular target: 5-hydroxytryptamine receptor 2A (Homo sapiens, UniProt P28223); details: Compound concentration 10.0 uM
[8] = molecular target: Glutamate receptor ionotropic, NMDA 2A (Homo sapiens, UniProt Q05586+Q12879); test: GluN2A-containing NMDA receptor (Ca2+ influx) assay (EC50)
[9] = molecular target: D(2) dopamine receptor (Homo sapiens, UniProt P14416); details: Compound concentration 10.0 uM
[10] = molecular target: 5-hydroxytryptamine receptor 1E (Homo sapiens) (UniProt P28566); details: Compound concentration 10.0 uM
[11] = molecular target: 5-hydroxytryptamine receptor 6 (Homo sapiens) (UniProt P50406); details: Compound concentration 10.0 uM
[12] = molecular target: Muscarinic acetylcholine receptor M4 (Homo sapiens) (UniProt P08173); details: Compound concentration 10.0 uM
[13] = molecular target: Beta-1 adrenergic receptor (Homo sapiens, UniProt P08588); details: Compound concentration 10.0 uM
[14] = molecular target: Muscarinic acetylcholine receptor M1 (Homo sapiens) (UniProt P11229); details: Compound concentration 10.0 uM
[15] = molecular target: 5-hydroxytryptamine receptor 1D (Homo sapiens, UniProt P28221); details: Compound concentration 10.0 uM
[16] = molecular target: Alpha-1B adrenergic receptor (Homo sapiens) (UniProt P35368); details: Compound concentration 10.0 uM
[17] = molecular target: D(1A) dopamine receptor (Homo sapiens, UniProt P21728); details: Compound concentration 10.0 uM
[18] = molecular target: 5-hydroxytryptamine receptor 3A (Homo sapiens) (UniProt P46098); details: Compound concentration 10.0 uM
[19] = organism: Rattus norvegicus; details: Compound concentration 10.0 uM
[20] = molecular target: Histamine H4 receptor (Homo sapiens) (UniProt Q9H3N8); details: Compound concentration 10.0 uM
[21] = molecular target: Alpha-2C adrenergic receptor (Homo sapiens) (UniProt P18825); details: Compound concentration 10.0 uM
[22] = molecular target: Mu-type opioid receptor (Homo sapiens, UniProt P35372); details: Compound concentration 10.0 uM
[23] = molecular target: Histamine H1 receptor (Homo sapiens, UniProt P35367); details: Compound concentration 10.0 uM
[24] = molecular target: 5-hydroxytryptamine receptor 1A (Homo sapiens) (UniProt P08908); details: Compound concentration 10.0 uM
[25] = molecular target: 5-hydroxytryptamine receptor 2B (Homo sapiens, UniProt P41595); details: Compound concentration 10.0 uM
[26] = molecular target: 5-hydroxytryptamine receptor 2C (Homo sapiens) (UniProt P28335); details: Compound concentration 10.0 uM
[27] = molecular target: Sodium-dependent noradrenaline transporter (Homo sapiens, UniProt P23975); details: Compound concentration 10.0 uM
[28] = AMPA receptor scintillation proximity binding assay; parameters: species or system Homo sapiens
[29] = molecular target: Kappa-type opioid receptor (Homo sapiens, UniProt P41145); details: Compound concentration 10.0 uM
[30] = molecular target: T1, Sodium-dependent dopamine transporter; details: Compound concentration 10.0 uM
[31] = molecular target: Delta-type opioid receptor (Homo sapiens, UniProt P41143); details: Compound concentration 10.0 uM
[32] = molecular target: Beta-3 adrenergic receptor (Homo sapiens) (UniProt P13945); details: Compound concentration 10.0 uM
[33] = molecular target: GABA-A receptor; anion channel (Rattus norvegicus) (UniProt O09028+P15431+P18506+P18508+P19969+P20236+P23574+P23576+P28471+P28473+P30191+P62813+P63079+P63138+Q91ZM7+Q9ES14); details: Compound concentration 10.0 uM
[34] = molecular target: Histamine H3 receptor (Homo sapiens) (UniProt Q9Y5N1); details: Compound concentration 10.0 uM
[35] = molecular target: Alpha-2B adrenergic receptor (Homo sapiens) (UniProt P18089); details: Compound concentration 10.0 uM
[36] = molecular target: Histamine H2 receptor (Homo sapiens, UniProt P25021); details: Compound concentration 10.0 uM
[37] = molecular target: D(3) dopamine receptor (Homo sapiens) (UniProt P35462); details: Compound concentration 10.0 uM
[38] = molecular target: Sigma intracellular receptor 2 (Homo sapiens) (UniProt Q5BJF2); details: Compound concentration 10.0 uM
[39] = molecular target: Alpha-1D adrenergic receptor (Homo sapiens) (UniProt P25100); details: Compound concentration 10.0 uM
[40] = molecular target: 5-hydroxytryptamine receptor 1B (Homo sapiens, UniProt P28222); details: Compound concentration 10.0 uM
5-hydroxytryptamine receptor 1B, sequence (P28222 whole entry): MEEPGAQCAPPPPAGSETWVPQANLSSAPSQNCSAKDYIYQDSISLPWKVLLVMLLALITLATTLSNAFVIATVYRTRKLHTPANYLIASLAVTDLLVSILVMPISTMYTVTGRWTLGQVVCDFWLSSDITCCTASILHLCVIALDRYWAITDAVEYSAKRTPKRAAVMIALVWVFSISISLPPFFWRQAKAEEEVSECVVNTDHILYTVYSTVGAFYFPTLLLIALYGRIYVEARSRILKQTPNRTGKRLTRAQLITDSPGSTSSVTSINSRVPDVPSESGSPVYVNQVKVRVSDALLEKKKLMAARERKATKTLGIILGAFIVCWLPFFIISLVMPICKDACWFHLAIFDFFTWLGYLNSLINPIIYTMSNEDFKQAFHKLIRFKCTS

T1 sequence (Q01959 whole entry): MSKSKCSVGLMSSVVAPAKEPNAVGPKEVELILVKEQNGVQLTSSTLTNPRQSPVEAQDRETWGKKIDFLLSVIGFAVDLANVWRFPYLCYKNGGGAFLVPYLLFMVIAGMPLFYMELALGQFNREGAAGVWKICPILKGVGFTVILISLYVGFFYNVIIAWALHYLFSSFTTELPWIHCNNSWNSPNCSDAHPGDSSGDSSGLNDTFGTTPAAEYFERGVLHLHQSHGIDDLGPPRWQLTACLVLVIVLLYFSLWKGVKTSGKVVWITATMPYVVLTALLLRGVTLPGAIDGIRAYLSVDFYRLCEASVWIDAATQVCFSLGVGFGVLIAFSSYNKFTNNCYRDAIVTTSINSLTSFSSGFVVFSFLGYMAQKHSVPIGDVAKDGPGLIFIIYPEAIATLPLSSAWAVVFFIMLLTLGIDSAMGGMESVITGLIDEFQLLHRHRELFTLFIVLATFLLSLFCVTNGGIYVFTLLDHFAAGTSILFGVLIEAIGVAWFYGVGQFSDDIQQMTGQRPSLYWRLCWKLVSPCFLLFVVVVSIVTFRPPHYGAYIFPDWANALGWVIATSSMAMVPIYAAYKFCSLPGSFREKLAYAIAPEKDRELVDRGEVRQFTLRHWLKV
5-hydroxytryptamine receptor 6 (Homo sapiens), sequence (P50406 whole entry): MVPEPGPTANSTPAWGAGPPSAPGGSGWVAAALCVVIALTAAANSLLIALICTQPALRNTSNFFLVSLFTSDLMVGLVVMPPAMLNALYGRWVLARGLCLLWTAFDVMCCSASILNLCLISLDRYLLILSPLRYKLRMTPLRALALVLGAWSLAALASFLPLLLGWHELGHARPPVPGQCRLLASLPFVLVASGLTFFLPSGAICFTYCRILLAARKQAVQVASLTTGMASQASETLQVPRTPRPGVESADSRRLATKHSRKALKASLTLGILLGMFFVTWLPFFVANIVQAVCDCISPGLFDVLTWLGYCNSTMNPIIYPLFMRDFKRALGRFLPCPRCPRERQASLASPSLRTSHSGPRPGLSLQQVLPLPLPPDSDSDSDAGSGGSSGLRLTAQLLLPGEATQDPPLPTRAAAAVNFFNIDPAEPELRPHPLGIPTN
D(4) dopamine receptor (Homo sapiens), sequence (P21917 whole entry): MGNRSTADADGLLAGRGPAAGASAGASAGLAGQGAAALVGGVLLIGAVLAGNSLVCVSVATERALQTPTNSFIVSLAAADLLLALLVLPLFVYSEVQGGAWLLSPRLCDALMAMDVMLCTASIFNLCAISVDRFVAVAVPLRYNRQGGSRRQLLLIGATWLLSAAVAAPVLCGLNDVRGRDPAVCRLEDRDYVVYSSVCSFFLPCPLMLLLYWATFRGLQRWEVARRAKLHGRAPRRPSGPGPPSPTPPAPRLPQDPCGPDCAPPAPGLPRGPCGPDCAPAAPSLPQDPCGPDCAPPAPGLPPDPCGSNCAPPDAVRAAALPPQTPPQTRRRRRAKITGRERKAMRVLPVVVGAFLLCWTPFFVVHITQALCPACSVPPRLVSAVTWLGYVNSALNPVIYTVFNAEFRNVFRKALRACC
Beta-3 adrenergic receptor (Homo sapiens), sequence (P13945 whole entry, looked up): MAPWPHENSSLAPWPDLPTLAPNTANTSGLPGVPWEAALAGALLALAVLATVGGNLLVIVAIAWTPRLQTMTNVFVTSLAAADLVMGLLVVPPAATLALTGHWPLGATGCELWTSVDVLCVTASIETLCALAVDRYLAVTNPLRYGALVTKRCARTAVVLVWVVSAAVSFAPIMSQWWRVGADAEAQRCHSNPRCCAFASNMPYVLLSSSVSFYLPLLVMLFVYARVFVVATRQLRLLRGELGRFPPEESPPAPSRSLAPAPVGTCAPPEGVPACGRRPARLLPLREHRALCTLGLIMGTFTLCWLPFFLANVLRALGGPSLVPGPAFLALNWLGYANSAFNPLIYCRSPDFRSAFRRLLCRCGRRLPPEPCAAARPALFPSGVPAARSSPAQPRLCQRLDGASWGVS
5-hydroxytryptamine receptor 2B, sequence (P41595 whole entry): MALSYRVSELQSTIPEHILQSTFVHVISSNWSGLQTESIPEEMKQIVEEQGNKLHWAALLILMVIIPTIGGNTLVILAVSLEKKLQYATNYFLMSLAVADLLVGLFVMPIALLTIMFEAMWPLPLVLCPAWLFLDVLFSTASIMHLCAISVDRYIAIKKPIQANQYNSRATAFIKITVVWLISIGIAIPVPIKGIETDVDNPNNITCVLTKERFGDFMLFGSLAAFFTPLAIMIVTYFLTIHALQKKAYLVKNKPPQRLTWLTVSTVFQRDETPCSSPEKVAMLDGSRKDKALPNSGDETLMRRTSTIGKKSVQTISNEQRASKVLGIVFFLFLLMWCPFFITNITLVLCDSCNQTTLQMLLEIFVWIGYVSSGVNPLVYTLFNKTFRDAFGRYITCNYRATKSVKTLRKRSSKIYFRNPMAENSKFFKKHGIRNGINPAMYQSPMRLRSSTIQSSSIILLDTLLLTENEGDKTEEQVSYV
D(1A) dopamine receptor, sequence (P21728 whole entry): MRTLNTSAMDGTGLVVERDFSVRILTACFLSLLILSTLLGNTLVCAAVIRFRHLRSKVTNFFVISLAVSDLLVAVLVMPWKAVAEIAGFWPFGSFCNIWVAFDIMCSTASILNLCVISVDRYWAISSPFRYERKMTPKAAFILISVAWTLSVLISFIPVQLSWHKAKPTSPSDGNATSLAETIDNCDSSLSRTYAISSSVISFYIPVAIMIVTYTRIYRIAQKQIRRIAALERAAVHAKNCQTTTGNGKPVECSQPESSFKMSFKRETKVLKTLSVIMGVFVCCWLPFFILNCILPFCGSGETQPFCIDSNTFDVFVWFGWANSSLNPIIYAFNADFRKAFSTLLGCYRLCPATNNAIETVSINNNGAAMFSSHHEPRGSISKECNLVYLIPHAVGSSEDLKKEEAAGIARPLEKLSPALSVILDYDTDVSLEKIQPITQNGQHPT
5-hydroxytryptamine receptor 5A (Homo sapiens), sequence (P47898 whole entry): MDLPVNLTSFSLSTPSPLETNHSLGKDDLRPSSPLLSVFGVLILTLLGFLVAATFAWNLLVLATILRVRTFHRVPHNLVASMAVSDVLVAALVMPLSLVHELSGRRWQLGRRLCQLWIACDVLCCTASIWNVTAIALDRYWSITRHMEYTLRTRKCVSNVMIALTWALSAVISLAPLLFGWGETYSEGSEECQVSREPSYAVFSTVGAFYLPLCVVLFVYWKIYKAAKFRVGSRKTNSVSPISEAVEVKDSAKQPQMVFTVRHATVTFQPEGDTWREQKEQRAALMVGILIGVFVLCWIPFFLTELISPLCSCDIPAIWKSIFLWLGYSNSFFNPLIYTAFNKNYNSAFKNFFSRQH
D(2) dopamine receptor, sequence (P14416 whole entry): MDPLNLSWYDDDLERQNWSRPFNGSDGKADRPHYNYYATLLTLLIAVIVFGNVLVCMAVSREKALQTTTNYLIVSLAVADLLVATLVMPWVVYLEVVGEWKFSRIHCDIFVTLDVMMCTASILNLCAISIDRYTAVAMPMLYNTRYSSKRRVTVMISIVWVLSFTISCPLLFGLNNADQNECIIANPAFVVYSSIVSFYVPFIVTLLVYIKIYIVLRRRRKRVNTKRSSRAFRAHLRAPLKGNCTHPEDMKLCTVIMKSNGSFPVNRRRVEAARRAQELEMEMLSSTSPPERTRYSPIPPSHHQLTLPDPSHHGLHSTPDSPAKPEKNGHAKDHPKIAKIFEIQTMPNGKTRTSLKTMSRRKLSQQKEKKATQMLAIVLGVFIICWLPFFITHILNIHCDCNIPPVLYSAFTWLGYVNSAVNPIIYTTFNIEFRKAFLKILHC
Histamine H4 receptor (Homo sapiens), sequence (Q9H3N8 whole entry): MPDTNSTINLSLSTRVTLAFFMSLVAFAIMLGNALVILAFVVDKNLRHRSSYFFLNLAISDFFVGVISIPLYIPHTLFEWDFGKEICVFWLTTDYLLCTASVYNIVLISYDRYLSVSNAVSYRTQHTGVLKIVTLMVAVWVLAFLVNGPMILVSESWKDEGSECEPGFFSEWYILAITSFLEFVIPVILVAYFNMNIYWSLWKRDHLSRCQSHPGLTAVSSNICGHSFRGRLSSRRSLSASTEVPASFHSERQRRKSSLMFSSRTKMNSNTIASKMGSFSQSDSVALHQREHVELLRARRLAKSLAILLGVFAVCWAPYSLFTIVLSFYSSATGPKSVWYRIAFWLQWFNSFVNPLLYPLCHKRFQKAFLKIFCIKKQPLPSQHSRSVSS
Beta-1 adrenergic receptor, sequence (P08588 whole entry, looked up): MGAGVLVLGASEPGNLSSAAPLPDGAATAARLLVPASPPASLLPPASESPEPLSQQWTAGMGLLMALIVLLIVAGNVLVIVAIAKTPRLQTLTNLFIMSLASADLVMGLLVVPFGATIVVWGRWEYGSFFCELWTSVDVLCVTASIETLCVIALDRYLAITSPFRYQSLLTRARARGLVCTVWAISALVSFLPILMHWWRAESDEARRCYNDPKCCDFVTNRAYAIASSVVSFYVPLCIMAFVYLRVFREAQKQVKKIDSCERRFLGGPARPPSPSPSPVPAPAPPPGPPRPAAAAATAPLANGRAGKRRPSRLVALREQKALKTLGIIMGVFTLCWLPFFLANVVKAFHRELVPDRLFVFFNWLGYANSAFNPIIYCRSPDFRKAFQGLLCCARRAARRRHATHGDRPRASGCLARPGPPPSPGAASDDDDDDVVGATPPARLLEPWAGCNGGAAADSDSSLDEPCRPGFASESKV

Compound: Cc1cn([C@@H](C)CC#N)c(=O)c2cc(Cn3nc(C(F)F)cc3Cl)nn12
- inhibition [1]: -5.71%
- inhibition [2]: -7.46%
- pKi [3]: < 5
- Ki ([3]; read-out: Ki): > 10 µM
- inhibition [4]: 33.4%
- inhibition [5]: 19%
- inhibition [6]: 0.68%
- inhibition [7]: -9.06%
- EC50 [8]: > 30 µM (not active)
- inhibition [9]: 5.88%
- inhibition [10]: 3.73%
- inhibition [11]: -6.08%
- inhibition [12]: -0.32%
- inhibition [13]: -0.27%
- inhibition [14]: -8.98%
- inhibition [15]: 15.5%
- inhibition [16]: 1.49%
- inhibition [17]: -0.9%
- inhibition [18]: -1.27%
- inhibition [19]: 21.3%
- inhibition [20]: 20.4%
- inhibition [21]: -9.92%
- inhibition [22]: -0.1%
- inhibition [23]: -2.74%
- inhibition [24]: -6.45%
- inhibition [25]: 12%
- inhibition [26]: -9.2%
- inhibition [27]: -2.17%
- IC50 [28]: > 30 µM (not active)
- inhibition [29]: 22.6%
- inhibition [30]: 57.6%
- inhibition [31]: -8.09%
- inhibition [32]: -5.75%
- inhibition [33]: 1.81%
- inhibition [34]: -5.14%
- inhibition [35]: 1.85%
- inhibition [36]: 7.11%
- inhibition [37]: 4.06%
- inhibition [38]: 15.8%
- inhibition [39]: -4.44%
- inhibition [40]: 27.7%
